Measurements published in patent US11986532B2 (Arvinas Operations, Inc., priority 2021, dated 2024).
Read-outs that look alike come from different tables or passages of the source.

Target: T1, BCL6 (Homo sapiens, UniProt P41182)
T1 construct: endogenous in cells; host or cells: T47D breast cancer epithelial cells
Experiment: Immunofluorescence protocol for high content imaging of BCL6 (degradation) in T47D cells, 3 days compound treatment
Type: cell-based
Details: for DC50: read-out: Mean DC50 (nM)* category; for Dmax: read-out: Mean Dmax (%)** category
Method in brief: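 T47D, RPMI1640/10% FBS; cpd 11-pt 3-fold, top 0.1 or 1 μM final; 3 d, 37° C. Fix 4% PFA, perm 0.1% Triton, block 3% BSA; anti-BCL6 1:300 o/n 4° C; Alexa-488 2°, CellMask-647, Hoechst. Imaged 10×, 4 fields/well.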

[1] = T47D cells, 3 days compound treatment

| SMILES | DC50 [1] [nM] | Dmax [1] [%] | Dmax (T47D) [%] | DC50 [nM] |
| --- | --- | --- | --- | --- |
| CNC(=O)COc1cc2cc(Nc3nc(N4CCC(CN5CCC6(CN(c7cc8c(cc7F)C(=O)N(C7CCC(=O)NC7=O)C8)C6)C(F)(F)C5)CC4)ncc3Cl)ccc2n(C(C)C)c1=O (stereo not drawn) [Compound 100, 2-{[6-({5-chloro-2-[4-({2-[2-(2,6-dioxopiperidin-3-yl)-6-fluoro-1-oxo-2,3-dihydro-1H-isoindol-5-yl]-5,5-difluoro-2,7-diazaspiro[3.5]nonan-7-yl}methyl)piperidin-1-yl]pyrimidin-4-yl}amino)-2-oxo-1-(propan-2-yl)-1,2-dihydroquinolin-3-yl]oxy}-N-methylacetamide] | < 10 | 50 to 70 | – | – |
| CNC(=O)COc1cc2cc(Nc3nc(N4CCC(C(C)(C)N5CCC6(CC5)CN(c5ccc7c(c5)CN(C5CCC(=O)NC5=O)C7=O)C6)CC4)ncc3Cl)ccc2n(C(C)C)c1=O (stereo not drawn) [Compound 58, 2-{[6-({5-chloro-2-[4-(2-{2-[2-(2,6-dioxopiperidin-3-yl)-1-oxo-2,3-dihydro-1H-isoindol-5-yl]-2,7-diazaspiro[3.5]nonan-7-yl}propan-2-yl)piperidin-1-yl]pyrimidin-4-yl}amino)-2-oxo-1-(propan-2-yl)-1,2-dihydroquinolin-3-yl]oxy}-N-methylacetamide] | < 10 | ≥ 70 | – | – |
| CNC(=O)COc1cc2cc(Nc3nc(N4CCC(OC5CCN(c6ccc7c(c6)CN(C6CCC(=O)NC6=O)C7=O)CC5)CC4)ncc3Cl)ccc2n(C(C)C)c1=O (stereo not drawn) [Compound 28, 2-{[6-({5-chloro-2-[4-({1-[2-(2,6-dioxopiperidin-3-yl)-1-oxo-2,3-dihydro-1H-isoindol-5-yl]piperidin-4-yl}oxy)piperidin-1-yl]pyrimidin-4-yl}amino)-2-oxo-1-(propan-2-yl)-1,2-dihydroquinolin-3-yl]oxy}-N-methylacetamide] | < 10 | 50 to 70 | – | – |
| CNC(=O)COc1cc2cc(Nc3nc(N4CCN(CC5CC6(CCN(c7cc8c(cc7F)C(=O)N(C7CCC(=O)NC7=O)C8)CC6)C5)CC4)ncc3Cl)ccc2n(C(C)C)c1=O (stereo not drawn) [Compound 318, 2-{[6-({5-chloro-2-[4-({7-[2-(2,6-dioxopiperidin-3-yl)-6-fluoro-1-oxo-2,3-dihydro-1H-isoindol-5-yl]-7-azaspiro[3.5]nonan-2-yl}methyl)piperazin-1-yl]pyrimidin-4-yl}amino)-2-oxo-1-(propan-2-yl)-1,2-dihydroquinolin-3-yl]oxy}-N-methylacetamide] | – | – | 50 to 70 | < 10 |
| CNC(=O)COc1cc2cc(Nc3nc(N4CCC(CN5CC6(CCN(c7ccc8c(c7)CN(C7CCC(=O)NC7=O)C8=O)C6)CC5=O)CC4)ncc3Cl)ccc2n(C(C)C)c1=O (stereo not drawn) [Compound 54, 2-{[6-({5-chloro-2-[4-({7-[2-(2,6-dioxopiperidin-3-yl)-1-oxo-2,3-dihydro-1H-isoindol-5-yl]-3-oxo-2,7-diazaspiro[4.4]nonan-2-yl}methyl)piperidin-1-yl]pyrimidin-4-yl}amino)-2-oxo-1-(propan-2-yl)-1,2-dihydroquinolin-3-yl]oxy}-N-methylacetamide] | < 10 | < 50 | – | – |
| CNC(=O)COc1cc2cc(Nc3nc(N4CCC(OC5CN([C@H]6CC[C@@H](c7ccc8c(c7Cl)CN(C7CCC(=O)NC7=O)C8=O)CC6)C5)CC4)ncc3Cl)ccc2n(C(C)C)c1=O (stereo partly drawn) [Compound 186, 2-{[6-({5-chloro-2-[4-({1-[(1s,4s)-4-[4-chloro-2-(2,6-dioxopiperidin-3-yl)-1-oxo-2,3-dihydro-1H-isoindol-5-yl]cyclohexyl]azetidin-3-yl}oxy)piperidin-1-yl]pyrimidin-4-yl}amino)-2-oxo-1-(propan-2-yl)-1,2-dihydroquinolin-3-yl]oxy}-N-methylacetamide] | < 10 | < 50 | – | – |
